The values that follow come from ChEMBL document CHEMBL5291721, “A preclinical secondary pharmacology resource illuminates target-adverse drug reaction associations of marketed drugs” (Nat Commun, 2023).

Test [1] addresses Growth hormone secretagogue receptor type 1 (Homo sapiens, UniProt Q92847).
Test [2] addresses Voltage-gated inwardly rectifying potassium channel KCNH2 (Homo sapiens, UniProt Q12809). It is filed as functional. Conditions: read-out: AC50.
The next test has as its target D(1A) dopamine receptor (Homo sapiens, UniProt P21728). It is filed as functional, cell-based.
The target of test [3] is T1, Alpha-2A adrenergic receptor (Homo sapiens, UniProt P08913).
T1 sequence (P08913 whole entry): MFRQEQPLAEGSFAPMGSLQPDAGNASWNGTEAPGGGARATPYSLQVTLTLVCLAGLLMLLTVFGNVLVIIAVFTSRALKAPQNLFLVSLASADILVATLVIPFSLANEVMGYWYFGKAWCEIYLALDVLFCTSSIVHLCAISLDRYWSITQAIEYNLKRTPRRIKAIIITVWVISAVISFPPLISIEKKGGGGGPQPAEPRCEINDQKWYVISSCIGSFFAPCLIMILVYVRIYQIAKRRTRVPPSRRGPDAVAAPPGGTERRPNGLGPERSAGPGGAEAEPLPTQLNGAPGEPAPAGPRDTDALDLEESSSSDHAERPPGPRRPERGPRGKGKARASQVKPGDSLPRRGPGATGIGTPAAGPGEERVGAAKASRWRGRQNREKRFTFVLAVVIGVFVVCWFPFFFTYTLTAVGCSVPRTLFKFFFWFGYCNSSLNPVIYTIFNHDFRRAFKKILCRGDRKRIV
It is filed as functional, cell-based.

Test [4] has as its target T2, 5-hydroxytryptamine receptor 3A (Homo sapiens, UniProt P46098).
T2 sequence (P46098 whole entry): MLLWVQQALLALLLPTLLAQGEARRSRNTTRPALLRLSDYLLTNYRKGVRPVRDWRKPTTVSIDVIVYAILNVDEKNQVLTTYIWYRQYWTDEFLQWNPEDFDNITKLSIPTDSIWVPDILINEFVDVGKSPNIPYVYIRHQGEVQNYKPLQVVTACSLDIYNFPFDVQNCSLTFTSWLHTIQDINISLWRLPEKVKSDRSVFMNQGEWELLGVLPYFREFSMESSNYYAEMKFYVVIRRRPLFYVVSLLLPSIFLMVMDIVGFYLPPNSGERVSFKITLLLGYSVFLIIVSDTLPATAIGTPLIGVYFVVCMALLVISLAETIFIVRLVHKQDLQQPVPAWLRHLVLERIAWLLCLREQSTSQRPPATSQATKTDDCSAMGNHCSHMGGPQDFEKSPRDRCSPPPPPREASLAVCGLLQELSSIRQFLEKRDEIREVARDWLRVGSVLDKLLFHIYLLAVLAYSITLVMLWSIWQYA
The format is functional.

In a further test the target is Vasopressin V1a receptor (Homo sapiens, UniProt P37288).
The target in test [5] is Sodium-dependent dopamine transporter (Homo sapiens, UniProt Q01959).
Another test deals with Cannabinoid receptor 1 (Homo sapiens, UniProt P21554). It is filed as functional, cell-based.
For test [6], the target named is T3, Type-1 angiotensin II receptor (Homo sapiens, UniProt P30556).
T3 sequence (P30556 whole entry): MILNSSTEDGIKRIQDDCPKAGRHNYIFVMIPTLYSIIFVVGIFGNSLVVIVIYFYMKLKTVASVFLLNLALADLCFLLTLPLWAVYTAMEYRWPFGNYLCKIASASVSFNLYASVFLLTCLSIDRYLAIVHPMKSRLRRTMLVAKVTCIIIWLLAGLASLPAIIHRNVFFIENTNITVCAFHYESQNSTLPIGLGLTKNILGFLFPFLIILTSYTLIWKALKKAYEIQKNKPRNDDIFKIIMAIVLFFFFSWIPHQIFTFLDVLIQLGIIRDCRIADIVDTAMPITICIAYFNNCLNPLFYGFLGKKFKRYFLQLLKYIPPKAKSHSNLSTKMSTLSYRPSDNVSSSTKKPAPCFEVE

The target of test [7] is T4, Gamma-aminobutyric acid receptor subunit alpha-1 (Rattus norvegicus, UniProt P62813). The format is functional.
The target of test [8] is Kappa-type opioid receptor (Homo sapiens, UniProt P41145).
For test [9], the target named is T5, Muscarinic acetylcholine receptor M1 (Homo sapiens, UniProt P11229).
T5 sequence (P11229 whole entry): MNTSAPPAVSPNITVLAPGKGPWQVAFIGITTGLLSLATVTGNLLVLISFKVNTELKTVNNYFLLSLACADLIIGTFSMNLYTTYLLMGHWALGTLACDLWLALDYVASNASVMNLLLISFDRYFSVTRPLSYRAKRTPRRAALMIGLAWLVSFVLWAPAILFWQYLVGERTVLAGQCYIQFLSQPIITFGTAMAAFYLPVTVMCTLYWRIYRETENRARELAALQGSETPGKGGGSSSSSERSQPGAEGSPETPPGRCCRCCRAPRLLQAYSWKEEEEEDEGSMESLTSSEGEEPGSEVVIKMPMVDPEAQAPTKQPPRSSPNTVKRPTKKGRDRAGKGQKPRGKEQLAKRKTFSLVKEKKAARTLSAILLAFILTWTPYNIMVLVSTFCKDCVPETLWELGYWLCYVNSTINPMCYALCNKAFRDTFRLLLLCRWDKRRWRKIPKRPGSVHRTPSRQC
It is filed as functional.

Another test concerns the target D(3) dopamine receptor (Homo sapiens, UniProt P35462).
Test [10] has as its target T4, Gamma-aminobutyric acid receptor subunit alpha-1.
In test [11] the target is Voltage-dependent L-type calcium channel subunit alpha-1C (Rattus norvegicus, UniProt P22002). The format is functional.

Bounds are passed on as bounds.
Note: assay procedure not described here.

T4 sequence (P62813 whole entry): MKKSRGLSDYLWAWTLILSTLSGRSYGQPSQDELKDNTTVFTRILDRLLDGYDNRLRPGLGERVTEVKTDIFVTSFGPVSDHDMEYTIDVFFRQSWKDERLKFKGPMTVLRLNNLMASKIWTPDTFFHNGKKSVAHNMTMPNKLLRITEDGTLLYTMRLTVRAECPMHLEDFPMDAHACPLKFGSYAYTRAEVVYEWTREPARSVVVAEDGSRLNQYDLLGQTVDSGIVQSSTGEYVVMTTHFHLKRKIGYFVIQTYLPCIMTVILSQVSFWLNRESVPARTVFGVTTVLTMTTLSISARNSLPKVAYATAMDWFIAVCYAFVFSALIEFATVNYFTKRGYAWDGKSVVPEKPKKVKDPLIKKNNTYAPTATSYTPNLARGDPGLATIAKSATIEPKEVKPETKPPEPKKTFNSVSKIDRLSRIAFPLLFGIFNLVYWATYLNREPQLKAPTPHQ
Chain of Sodium-dependent dopamine transporter (Q01959 whole entry): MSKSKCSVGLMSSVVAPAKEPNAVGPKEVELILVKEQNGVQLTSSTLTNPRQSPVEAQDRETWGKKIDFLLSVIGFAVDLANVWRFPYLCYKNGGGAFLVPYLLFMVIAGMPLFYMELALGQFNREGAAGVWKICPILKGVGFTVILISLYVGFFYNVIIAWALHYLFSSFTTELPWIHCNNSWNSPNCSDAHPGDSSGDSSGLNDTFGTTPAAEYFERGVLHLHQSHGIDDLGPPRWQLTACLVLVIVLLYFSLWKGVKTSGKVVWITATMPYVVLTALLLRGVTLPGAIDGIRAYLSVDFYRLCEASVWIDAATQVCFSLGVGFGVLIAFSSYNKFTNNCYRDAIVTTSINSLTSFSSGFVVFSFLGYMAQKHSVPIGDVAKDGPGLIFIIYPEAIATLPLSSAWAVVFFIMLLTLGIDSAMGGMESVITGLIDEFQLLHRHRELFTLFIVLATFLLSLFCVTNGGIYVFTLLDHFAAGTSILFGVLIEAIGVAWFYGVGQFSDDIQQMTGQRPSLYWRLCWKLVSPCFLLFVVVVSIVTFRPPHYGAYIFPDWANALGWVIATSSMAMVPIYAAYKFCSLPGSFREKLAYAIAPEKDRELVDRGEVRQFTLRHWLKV
Chain of Cannabinoid receptor 1 (P21554 whole entry): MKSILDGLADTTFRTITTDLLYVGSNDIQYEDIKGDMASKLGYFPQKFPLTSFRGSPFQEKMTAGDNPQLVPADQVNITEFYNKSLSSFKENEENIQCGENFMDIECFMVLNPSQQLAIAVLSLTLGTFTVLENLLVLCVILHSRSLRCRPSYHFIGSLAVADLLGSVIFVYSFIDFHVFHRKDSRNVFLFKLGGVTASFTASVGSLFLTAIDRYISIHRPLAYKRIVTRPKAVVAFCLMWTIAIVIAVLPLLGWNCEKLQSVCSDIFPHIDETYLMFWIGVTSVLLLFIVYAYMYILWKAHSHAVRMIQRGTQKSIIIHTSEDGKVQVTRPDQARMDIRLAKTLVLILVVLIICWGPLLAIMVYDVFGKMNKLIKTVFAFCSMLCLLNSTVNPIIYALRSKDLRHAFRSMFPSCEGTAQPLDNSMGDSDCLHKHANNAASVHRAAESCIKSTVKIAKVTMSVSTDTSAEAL
Chain of Kappa-type opioid receptor (P41145 whole entry): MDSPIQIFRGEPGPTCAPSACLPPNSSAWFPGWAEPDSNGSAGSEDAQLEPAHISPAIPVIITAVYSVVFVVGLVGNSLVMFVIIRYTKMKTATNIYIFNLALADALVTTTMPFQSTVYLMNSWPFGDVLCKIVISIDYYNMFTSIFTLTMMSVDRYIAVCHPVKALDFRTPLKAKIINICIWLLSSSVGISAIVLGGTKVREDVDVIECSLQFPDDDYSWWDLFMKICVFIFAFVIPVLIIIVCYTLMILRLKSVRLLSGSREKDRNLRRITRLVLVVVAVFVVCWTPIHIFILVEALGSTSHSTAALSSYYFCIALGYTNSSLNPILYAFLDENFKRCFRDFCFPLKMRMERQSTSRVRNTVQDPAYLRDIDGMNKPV
Chain of Voltage-gated inwardly rectifying potassium channel KCNH2 (Q12809 whole entry): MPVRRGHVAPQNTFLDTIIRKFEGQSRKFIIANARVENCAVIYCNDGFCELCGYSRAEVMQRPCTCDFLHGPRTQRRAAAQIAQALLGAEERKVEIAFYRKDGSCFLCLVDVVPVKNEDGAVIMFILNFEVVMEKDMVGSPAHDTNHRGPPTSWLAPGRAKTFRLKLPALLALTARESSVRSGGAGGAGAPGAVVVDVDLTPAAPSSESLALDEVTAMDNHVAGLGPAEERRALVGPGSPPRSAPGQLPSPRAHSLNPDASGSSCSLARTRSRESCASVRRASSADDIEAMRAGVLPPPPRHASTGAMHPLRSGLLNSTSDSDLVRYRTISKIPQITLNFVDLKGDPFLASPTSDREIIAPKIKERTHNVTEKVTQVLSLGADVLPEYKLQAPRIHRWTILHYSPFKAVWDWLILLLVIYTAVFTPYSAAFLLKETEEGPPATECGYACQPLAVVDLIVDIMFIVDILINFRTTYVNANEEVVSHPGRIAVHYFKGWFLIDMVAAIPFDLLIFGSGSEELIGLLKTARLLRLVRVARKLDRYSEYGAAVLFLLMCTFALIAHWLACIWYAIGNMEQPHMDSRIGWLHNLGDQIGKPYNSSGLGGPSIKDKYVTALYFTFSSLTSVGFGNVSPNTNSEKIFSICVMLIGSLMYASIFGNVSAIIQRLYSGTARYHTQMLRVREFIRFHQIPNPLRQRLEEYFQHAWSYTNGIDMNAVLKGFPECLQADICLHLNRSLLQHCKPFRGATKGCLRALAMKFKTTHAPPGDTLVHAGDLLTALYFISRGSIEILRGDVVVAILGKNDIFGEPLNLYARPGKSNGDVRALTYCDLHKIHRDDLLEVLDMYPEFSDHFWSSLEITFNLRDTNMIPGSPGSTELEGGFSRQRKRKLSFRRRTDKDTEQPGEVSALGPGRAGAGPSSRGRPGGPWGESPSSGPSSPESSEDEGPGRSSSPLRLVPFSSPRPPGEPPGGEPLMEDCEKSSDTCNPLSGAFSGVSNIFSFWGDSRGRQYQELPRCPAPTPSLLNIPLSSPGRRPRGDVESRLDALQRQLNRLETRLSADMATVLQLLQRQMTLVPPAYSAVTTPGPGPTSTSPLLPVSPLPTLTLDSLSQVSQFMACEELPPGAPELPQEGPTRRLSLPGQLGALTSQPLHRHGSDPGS
Chain of D(1A) dopamine receptor (P21728 whole entry): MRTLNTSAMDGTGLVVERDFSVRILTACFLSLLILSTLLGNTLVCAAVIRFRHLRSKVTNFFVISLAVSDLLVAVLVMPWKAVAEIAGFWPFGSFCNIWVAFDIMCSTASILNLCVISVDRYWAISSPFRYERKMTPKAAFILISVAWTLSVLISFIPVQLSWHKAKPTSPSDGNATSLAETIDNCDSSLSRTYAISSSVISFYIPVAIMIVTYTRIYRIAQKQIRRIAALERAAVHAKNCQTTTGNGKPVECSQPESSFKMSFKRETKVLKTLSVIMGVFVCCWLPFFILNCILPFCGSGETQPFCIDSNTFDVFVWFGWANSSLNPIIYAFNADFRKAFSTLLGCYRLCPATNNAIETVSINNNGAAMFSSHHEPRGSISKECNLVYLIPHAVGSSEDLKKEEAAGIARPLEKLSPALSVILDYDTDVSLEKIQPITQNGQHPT
Chain of Vasopressin V1a receptor (P37288 whole entry): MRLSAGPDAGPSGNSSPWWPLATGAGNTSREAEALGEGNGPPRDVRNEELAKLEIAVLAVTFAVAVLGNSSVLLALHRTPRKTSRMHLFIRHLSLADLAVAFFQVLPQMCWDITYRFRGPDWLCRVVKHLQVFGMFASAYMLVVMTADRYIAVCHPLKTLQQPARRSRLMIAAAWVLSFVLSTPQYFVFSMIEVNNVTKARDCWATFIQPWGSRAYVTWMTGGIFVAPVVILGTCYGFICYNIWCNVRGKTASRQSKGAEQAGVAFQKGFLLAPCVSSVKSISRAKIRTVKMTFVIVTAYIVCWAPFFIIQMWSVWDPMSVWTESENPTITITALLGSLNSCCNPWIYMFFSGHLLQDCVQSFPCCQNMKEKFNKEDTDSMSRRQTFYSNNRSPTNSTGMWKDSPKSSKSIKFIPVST
Chain of D(3) dopamine receptor (P35462 whole entry): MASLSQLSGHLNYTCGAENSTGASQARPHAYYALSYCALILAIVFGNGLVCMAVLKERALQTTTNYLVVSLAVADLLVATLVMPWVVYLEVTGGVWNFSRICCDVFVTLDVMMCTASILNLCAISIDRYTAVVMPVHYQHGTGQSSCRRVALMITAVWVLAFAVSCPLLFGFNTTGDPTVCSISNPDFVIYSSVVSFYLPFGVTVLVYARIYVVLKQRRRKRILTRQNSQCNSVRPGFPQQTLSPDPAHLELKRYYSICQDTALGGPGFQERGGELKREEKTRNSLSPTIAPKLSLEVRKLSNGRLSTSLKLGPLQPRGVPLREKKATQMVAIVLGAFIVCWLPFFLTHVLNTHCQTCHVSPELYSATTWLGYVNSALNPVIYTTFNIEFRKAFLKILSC
Chain of Growth hormone secretagogue receptor type 1 (Q92847 whole entry): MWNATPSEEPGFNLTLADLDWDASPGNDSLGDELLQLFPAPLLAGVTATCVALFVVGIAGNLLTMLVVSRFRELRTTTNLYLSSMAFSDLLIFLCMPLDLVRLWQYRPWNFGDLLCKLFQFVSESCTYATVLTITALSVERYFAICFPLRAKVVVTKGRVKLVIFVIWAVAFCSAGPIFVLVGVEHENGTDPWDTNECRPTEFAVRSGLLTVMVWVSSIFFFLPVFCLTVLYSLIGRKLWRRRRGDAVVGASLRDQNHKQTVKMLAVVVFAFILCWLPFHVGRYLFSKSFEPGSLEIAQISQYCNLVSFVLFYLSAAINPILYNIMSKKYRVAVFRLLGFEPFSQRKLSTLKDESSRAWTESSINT

Turning to `COc1ccc(-n2nc(C(N)=O)c3c2C(=O)N(c2ccc(N4CCCCC4=O)cc2)CC3)cc1` [APIXABAN], the AC50 (in test [1]; in [2]; on D(1A) dopamine receptor; in [3]; in test [4]; at Vasopressin V1a receptor) was more than 30 µM each time. Besides, the AC50 (in [5]; on Cannabinoid receptor 1; in test [6]; in [7]; in test [8]; in test [9]) was more than 30 µM in each case. The AC50 (at D(3) dopamine receptor; in test [10]) was more than 30 µM in each case.

Consider `CC(=O)OCC1=C(C(=O)O)N2C(=O)[C@@H](NC(=O)Cc3cccs3)[C@H]2SC1` [CEPHALOTHIN], for which the AC50 (in test [1]; in test [2]; at D(1A) dopamine receptor; in [3]; in test [4]; on Vasopressin V1a receptor) was more than 30 µM each time. For the same compound, the AC50 (in test [5]; at Cannabinoid receptor 1; in [6]; in test [7]; in test [8]; in test [9]) was more than 30 µM in each case. The AC50 at D(3) dopamine receptor was more than 30 µM.

`CC1=C(C(=O)O)N2C(=O)[C@@H](NC(=O)[C@H](N)C3=CCC=CC3)[C@H]2SC1` [CEPHRADINE]: the AC50 (in test [1]; in [2]; at D(1A) dopamine receptor; in [3]; in [4]; at Vasopressin V1a receptor) was more than 30 µM each time. Besides, the AC50 (in test [5]; at Cannabinoid receptor 1; in test [6]; in test [7]; in test [8]; in [9]) was more than 30 µM throughout. The compound further registered an AC50 at D(3) dopamine receptor of more than 30 µM.

As for `CCCCCCOC(=O)NC(=N)c1ccc(NCc2nc3cc(C(=O)N(CCC(=O)OCC)c4ccccn4)ccc3n2C)cc1` [DABIGATRAN ETEXILATE], the AC50 in test [1] was more than 30 µM; at D(1A) dopamine receptor, more than 30 µM; in test [3], more than 30 µM; in test [4], more than 30 µM; at Vasopressin V1a receptor, more than 30 µM; in [5], 17 µM. The AC50 on Cannabinoid receptor 1 is more than 30 µM; in test [6], 7.7 µM; in [7], more than 30 µM; in test [8], more than 30 µM; in test [9], more than 30 µM; on D(3) dopamine receptor, more than 30 µM.

For `CCN1C(=O)NC(c2ccccc2)C1=O` (configuration not stated) [ETHOTOIN], the AC50 (in test [1]; in [2]; at D(1A) dopamine receptor; in test [3]; in test [4]; at Vasopressin V1a receptor) was more than 30 µM each time. The AC50 (in test [5]; on Cannabinoid receptor 1; in test [6]; in [7]; in [8]; in test [9]) was more than 30 µM in each case. The AC50 at D(3) dopamine receptor was more than 30 µM.

Take `CCC(=O)O[C@H](CC(=O)O)C[N+](C)(C)C` [LEVOCARNITINE PROPIONATE]: the AC50 (in [1]; in test [2]; at D(1A) dopamine receptor; in test [3]; in test [4]; on Vasopressin V1a receptor) was more than 30 µM each time. Also, the AC50 (in [5]; on Cannabinoid receptor 1; in test [6]; in test [7]; in test [8]; in test [9]) was more than 30 µM each time. Besides, the AC50 (at D(3) dopamine receptor; in test [10]) was more than 30 µM in each case.

Regarding `O=C(O)c1nn(Cc2ccc(Cl)cc2Cl)c2ccccc12` [LONIDAMINE], the AC50 (in test [1]; in test [2]; at D(1A) dopamine receptor; in test [3]; in [4]; on Vasopressin V1a receptor) was more than 30 µM each time. Further, the AC50 (in test [5]; at Cannabinoid receptor 1; in test [6]; in test [7]; in [8]; in [9]) was more than 30 µM in each case. For the same compound, at D(3) dopamine receptor, the AC50 was more than 30 µM.

Consider `COc1nc(C)nc(Cl)c1N=C1NCCN1` [MOXONIDINE], for which the concentration at half-maximal activity (AC50) (in test [1]; in test [2]; on D(1A) dopamine receptor; in test [4]; in test [5]; at Cannabinoid receptor 1) was more than 30 µM in each case. The AC50 (in test [6]; in test [7]; in test [8]; at D(3) dopamine receptor; in test [10]; in [11]) was more than 30 µM in each case.

As to `COC(=O)c1ccc2c(c1)NC(=O)/C2=C(\Nc1ccc(N(C)C(=O)CN2CCN(C)CC2)cc1)c1ccccc1` [NINTEDANIB], the AC50 was more than 30 µM in test [1]; 9.1 µM in [2]; more than 30 µM at D(1A) dopamine receptor; more than 30 µM in test [3]; more than 30 µM in test [4]; more than 30 µM on Vasopressin V1a receptor. The AC50 (in test [5]; at Cannabinoid receptor 1; in test [6]; in test [7]; in test [8]; in [9]) was more than 30 µM each time. Besides, the AC50 (on D(3) dopamine receptor; in [10]) was more than 30 µM each time.

Consider `CS(=O)(=O)NC(=O)CCC/C=C\C[C@H]1C(=O)C[C@@H](O)[C@@H]1/C=C/[C@@H](O)COc1ccccc1` [SULPROSTONE], for which the AC50 (in test [1]; in test [2]; on D(1A) dopamine receptor; in test [3]; in [4]; at Vasopressin V1a receptor) was more than 30 µM in each case. Further, the AC50 (in test [5]; on Cannabinoid receptor 1; in [6]; in test [7]; in [8]; in test [9]) was more than 30 µM in each case. Moreover, the AC50 (at D(3) dopamine receptor; in test [10]) was more than 30 µM throughout.

As usually defined, the AC50 is the midpoint of the concentration-response curve, whichever way the signal moves.
